Measurements reported in patent US12502392B2, “DRG-MDM2-6 for use as a novel mouse double minute 2 (MDM2) inhibitor” (BAHCESEHIR UNIVERSITESI, priority 2021, dated 2025).
pIC50: −log10 of the molar value.

Experiments:
[1] = system: MDA-MB231 breast cancer cell line; assay: MTT cell viability assay (IC50); assay type: cell-based; settings: Homo sapiens, MDA-MB-231; MDA-MB231 cells, single dose of treatment, 10^−9 to 10^−4 M, 570 nm absorbance, FIG. 1; read-out: IC50 (half-maximal inhibitory concentration)
Procedure: HCT 116 colon cancer and MDA-MB231 breast cancer cell lines are used in cell culture experiments.
Cells were treated with high-glucose DMEM medium (Biosera) supplemented with 10% FBS (Gibco) and 1× penicillin/streptomycin (Multicell). The assay was designed to contain 10,000 cells for each well of 24-well cell culture plates before being treated with inhibitors.
Compound of formula I was dissolved with DMSO as 20 mM stock. 24 hours later, the solution was diluted in DMEM with 10% FBS and final concentration of vehicle DMSO was 0.5% at maximum. Therefore, the vehicle group included 0.5% DMSO concentration in experiments. Intensive cultivation of cells causes a decrease in proliferation capacity.
The MTT cell viability assay was used to detect values of half-maximal inhibitory concentration (IC50). Different concentrations of compound of formula I ranging between 10^−9 to 10^−4 M were tested on MDA-MB231 cell lines with single dose of treatment. 570 nm absorbance values were recorded and IC50 values were calculated by dose response-inhibition curves and nonlinear regression analysis on Graphpad Prism 8 software. IC50 value of compound of formula I was determined to be […] (FIG. 1).

MDM2 protein = MDM2 protein (Homo sapiens, UniProt Q00987); settings: state of the art statement; cited from earlier work
Chain of MDM2 protein (Q00987 whole entry, species assumed): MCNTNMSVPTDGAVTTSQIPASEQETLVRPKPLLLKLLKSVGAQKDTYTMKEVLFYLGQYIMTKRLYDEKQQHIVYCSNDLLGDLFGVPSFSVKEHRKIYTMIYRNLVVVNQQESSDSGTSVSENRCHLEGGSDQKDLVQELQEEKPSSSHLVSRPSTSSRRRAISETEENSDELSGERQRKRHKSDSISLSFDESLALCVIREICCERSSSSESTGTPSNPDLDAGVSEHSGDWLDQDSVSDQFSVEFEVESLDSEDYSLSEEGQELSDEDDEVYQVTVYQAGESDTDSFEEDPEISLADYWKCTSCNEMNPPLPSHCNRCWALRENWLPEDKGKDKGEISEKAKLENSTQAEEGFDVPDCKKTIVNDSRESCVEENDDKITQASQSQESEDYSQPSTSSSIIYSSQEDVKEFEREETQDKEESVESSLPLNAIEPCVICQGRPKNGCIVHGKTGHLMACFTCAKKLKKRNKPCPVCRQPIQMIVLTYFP

Row | Compound | pIC50 [1] | binding affinity to MDM2 relative to a natural p53 peptide (MDM2 protein) [fold]
1 | O=C(CCCc1nc2ccccc2c(=O)[nH]1)NC(Cc1c[nH]c2ccccc12)C(=O)O (centres unmarked) [compound of formula I] | 4.89 | 
2 | MI-319 |  | 500
